Experiment [1] can be described thus: Breath-freshness self-assessment (three questions) after teeth brushing, home use test. In kind it is in vivo, human.
Description: (§1) Twenty-six participants were pre-screened to ensure that they had no underlying dental problems.
(§2) A repeated measures design, with a randomised repeated trial per product was used. Three toothpastes were prepared with: • Control: peppermint flavour • EC180—150 ppm: peppermint flavour+150 ppm EC180 (concentration in toothpaste) • EC180—250 ppm: peppermint flavour+250 ppm EC180 (concentration in toothpaste)
(§3) Participants were given duplicate tubes of each toothpaste (6 tubes in total). All products were assigned different codes and presented in white tubes to prevent colour as a confounding factor.
(§4) The participants did the test each morning in their homes as per their usual teeth cleaning time (between 7:00 am and 10:00 am) and were asked to refrain from using other oral practices apart from brushing with test product. Testing was done with one product a day with a one-day separation left before testing the next product. A questionnaire was sent to them via an online link for them to complete before teeth cleaning and after teeth cleaning. Responses before teeth cleaning were recorded as their baseline scores.
The data for this test was collected through an online questionnaire set up via SurveyMonkey Audience. The questionnaires on breath-freshness and self-confidence was set up for participants to respond to at the five time-points: (i) pre-brush baseline (ii) 0 minutes immediately post-bush (iii) 30 minutes post-brush (iv) 60 minutes post-brush. A total of 47 datasets per product was input for analysis and 5 incompletes were removed.
Breath freshness was self-evaluated with a set of three questions asking (i) whole mouth clean feel; (ii) natural freshness in mouth; and (lii) cooling sensation in the mouth. […] Breath assessment recorded before teeth brushing was categorized as the baseline measure.
(§5) To evaluate a change effect from the baseline (pre-brush) to the different times post-brush, a mean difference between each time-point to the baseline mean score was calculated to obtain delta values.
For experiment [2] the following is noted: employed in oral care compositions such as mouthwashes or toothpastes; cited from earlier work.
A short description of experiment [3]: Self-confidence, 9-item subscale of the modified CSAI-2 questionnaire, after teeth brushing, home use test. In kind it is in vivo, human.
Description: Individual's thoughts and feelings in relation to their self-confidence as per their perceived oral health (such as breath) were measured using a 9-item subscale of the modified Competitive State Anxiety Questionnaire (CSAI-2).
The nine items in the Self-confidence scale include five that describe positive expectations (“I feel self-confident”, “I am confident I can meet the challenge”, “I'm confident about performing well”, “I'm confident because I mentally picture myself reaching my goal”, and “I'm confident about coming through under pressure”), and four that describe a generalised feeling of calmness (“I feel calm”, “I feel comfortable”, “I feel secure”, “I feel mentally relaxed”). All items were rated on a 4-point scale anchored by 1 (“Not at all”) and 4 (“Very much so”).
as §1, §2, §3, §4
The questionnaires on breath-freshness and self-confidence was set up for participants to respond to at the five time-points: (i) pre-brush baseline (ii) 0 minutes immediately post-bush (iii) 30 minutes post-brush (iv) 60 minutes post-brush. A total of 47 datasets per product was input for analysis and 5 incompletes were removed.
Self-confidence was measured with the 9-Item subscale of the Modified Competitive State Inventory-2 (CSAI-2). The questionnaire uses a 4-point scale as follows:
1—not at all; 2—somewhat; 3—moderately so; 4—very much so.
as §5
Setting [4] is: 60 minutes from brushing with a toothpaste containing EC180.

Consider `CC(C)[C@@H]1CC[C@@H](C)C[C@H]1C(=O)Nc1ccc(CC#N)cc1` [EC180, (1R,2S,5R)—N-(4-cyanomethylphenyl)-p-menthane carboxamide], for which the “level of breath freshness vs flavoured tooth paste alone” value in experiment [1] (10 minutes after brushing, in a flavoured tooth-paste, FIG. 1) is recorded as “same level of breath freshness”. In addition, the “breath freshness relative to the initial level” value in experiment [1] (setting [4]) is “about 60%”. Further, in experiment [1] (up to 10 minutes after brushing, toothpaste comprising EC180), the “change of breath freshness compared to immediately after brushing (0 min)” value is listed as “only minimally increases”. Further, the cooling effect result in experiment [2] is “strong and long-lasting cooling effect”. In addition, in experiment [3] (10 minutes after brushing, in a flavoured tooth-paste, FIG. 2), the “level of self-confidence vs flavoured tooth paste alone” value was “significantly increased”. Besides, the “change of level of self-confidence compared to immediately after brushing (0 min)” value in experiment [3] (10 minutes after brushing, toothpaste comprising EC180) was “noticeable increase”. For the same compound, in experiment [3] (setting [4]), the “self-confidence compared to the level attained immediately after brushing” value is “more than 80%”. In experiment [3] (in a flavoured tooth-paste, effect still observed 60 min after brushing), the “period of time the level of self-confidence remained elevated after teeth brushing” value is recorded as “up to 30 min”.
